Source: ChEMBL document CHEMBL1131086, “Synthesis and biological activity of conformationally restricted analogues of milnacipran: (1S, 2R)-1-phenyl-2-[(R)-1-amino-2-propynyl]-N,N- diethylcyclopropanecarboxamide is a novel class of NMDA receptor channel blocker” (J Med Chem, 1998)
pIC50, pKi: −log10 of the molar value.

Experiments:
Glutamate NMDA receptor = target: Glutamate NMDA receptor; design: species or system Rattus norvegicus
Description: Inhibition of [3H]MK-801 binding to N-methyl-D-aspartate glutamate receptor of rat cerebral cortical synaptic membrane

[1] = target: Sodium-dependent serotonin transporter (Rattus norvegicus, UniProt P31652); experiment: Inhibition of Serotonin transporter in cerebral cortical synaptic membrane of rats using [3H]paroxetine
[2] = target: T1, 5-hydroxytryptamine receptor 2C (Rattus norvegicus) (UniProt P08909); experiment: Compound tested for relative response using 0.1 uM 5-HT as agonist against 5-hydroxytryptamine 2C receptor; type: functional
T1 sequence (whole entry): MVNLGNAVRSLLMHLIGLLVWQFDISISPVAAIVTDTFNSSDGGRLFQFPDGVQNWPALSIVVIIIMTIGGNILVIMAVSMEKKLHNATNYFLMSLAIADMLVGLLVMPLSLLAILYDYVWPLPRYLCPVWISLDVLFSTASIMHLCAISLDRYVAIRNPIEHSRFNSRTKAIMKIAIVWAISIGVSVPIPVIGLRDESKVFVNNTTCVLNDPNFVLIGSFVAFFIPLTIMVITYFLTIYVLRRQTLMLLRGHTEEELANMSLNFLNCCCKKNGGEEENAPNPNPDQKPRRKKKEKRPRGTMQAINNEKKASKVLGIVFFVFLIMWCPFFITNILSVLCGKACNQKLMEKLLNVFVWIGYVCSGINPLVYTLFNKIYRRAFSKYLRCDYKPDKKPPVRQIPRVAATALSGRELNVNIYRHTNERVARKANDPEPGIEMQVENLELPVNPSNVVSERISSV

[3] = target: T2, Muscarinic acetylcholine receptor M1 (Rattus norvegicus) (UniProt P08482); experiment: Compound tested for relative response using 1 uM ACh as agonist against AChM1 receptor.; type: functional
T2 sequence (whole entry): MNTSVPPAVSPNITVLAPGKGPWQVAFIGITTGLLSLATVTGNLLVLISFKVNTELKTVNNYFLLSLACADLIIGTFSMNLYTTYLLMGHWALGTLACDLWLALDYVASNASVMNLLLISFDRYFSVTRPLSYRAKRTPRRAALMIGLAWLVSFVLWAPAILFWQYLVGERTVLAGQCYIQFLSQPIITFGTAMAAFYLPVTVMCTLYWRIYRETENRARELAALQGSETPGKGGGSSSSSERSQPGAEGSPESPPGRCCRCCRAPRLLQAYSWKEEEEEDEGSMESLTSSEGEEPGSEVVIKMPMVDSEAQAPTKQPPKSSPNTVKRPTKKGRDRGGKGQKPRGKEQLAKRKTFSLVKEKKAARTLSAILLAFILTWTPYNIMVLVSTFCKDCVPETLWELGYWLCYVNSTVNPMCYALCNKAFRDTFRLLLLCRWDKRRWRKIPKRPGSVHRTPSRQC

[4] = target: GABA-A receptor; anion channel (Rattus norvegicus) (UniProt O09028+P15431+P18506+P18508+P19969+P20236+P23574+P23576+P28471+P28473+P30191+P62813+P63079+P63138+Q91ZM7+Q9ES14); experiment: Compound tested for relative response using 30 uM GABA as agonist against Gamma-aminobutyric acid A receptor; type: functional
[5] = target: Glutamate receptor ionotropic, kainate (Rattus norvegicus) (UniProt P22756+Q01812+P42260+P42264+Q63273); experiment: Compound tested for relative response using 30 uM kainate as agonist against Ionotropic glutamate receptor kainate; type: functional
[6] = target: Glutamate receptor ionotropic, AMPA (Rattus norvegicus) (UniProt P19491+P19492+P19493+P19490); experiment: Compound tested for relative response using 10 uM AMPA as agonist against Ionotropic glutamate receptor AMPA; type: functional
[7] = target: Glutamate receptor ionotropic, NMDA 1 (Rattus norvegicus) (UniProt P35439); experiment: Compound tested for relative response using 30 uM NMDA+10 uM glycine as agonist against N-methyl-D-aspartate glutamate receptor 1; type: functional

Chain of Sodium-dependent serotonin transporter (P31652 whole entry): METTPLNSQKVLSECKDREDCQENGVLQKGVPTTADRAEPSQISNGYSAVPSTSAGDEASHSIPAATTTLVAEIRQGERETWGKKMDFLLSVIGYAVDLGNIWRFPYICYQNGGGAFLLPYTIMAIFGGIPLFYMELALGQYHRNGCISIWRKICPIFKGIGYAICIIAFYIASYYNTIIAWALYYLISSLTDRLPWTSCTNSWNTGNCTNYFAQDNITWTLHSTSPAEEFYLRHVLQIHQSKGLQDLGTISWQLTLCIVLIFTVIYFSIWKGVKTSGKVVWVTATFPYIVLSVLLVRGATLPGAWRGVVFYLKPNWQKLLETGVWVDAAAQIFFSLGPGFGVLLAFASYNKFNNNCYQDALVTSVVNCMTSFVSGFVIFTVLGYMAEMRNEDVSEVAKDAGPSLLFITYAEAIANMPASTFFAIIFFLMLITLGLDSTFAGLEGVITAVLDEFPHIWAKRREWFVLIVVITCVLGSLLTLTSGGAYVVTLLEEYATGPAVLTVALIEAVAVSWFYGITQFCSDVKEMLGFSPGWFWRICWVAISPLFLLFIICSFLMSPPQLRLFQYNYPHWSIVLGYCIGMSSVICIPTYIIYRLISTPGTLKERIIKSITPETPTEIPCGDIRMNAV

Row | SMILES | pIC50 (Glutamate NMDA receptor) | pKi [1] | also measured
1 | C#CC(N)[C@@H]1C[C@@]1(C(=O)N(CC)CC)c1ccccc1 (stereo in doubt; 2d) [listing 1 of 2 here] | 6.54 | 6.72 | –
2 | C#CC(N)[C@@H]1C[C@@]1(C(=O)N(CC)CC)c1ccccc1 (stereo in doubt; 3d) | 4.80 | 4.82 | –
3 | CCN(CC)C(=O)[C@@]1(c2ccccc2)C[C@H]1C(N)C(=O)OC (some centres undefined) | < 4.00 | 4.60 | –
4 | CCN(CC)C(=O)[C@@]1(c2ccccc2)C[C@H]1C(N)C#N (stereo in doubt; 3e) | < 4.00 | – | –
5 | C#CC(N)[C@@H]1C[C@@]1(C(=O)N(CC)CC)c1ccccc1 (stereo in doubt; 2d) [listing 2 of 2 here] | – | – | Relative response [2]: 100%; Relative response [3]: 102%; Relative response [4]: 99.6%; Relative response [5]: 96.9%; Relative response [6]: 100%; Relative response [7]: 32.1%
6 | CCN(CC)C(=O)[C@@]1(c2ccccc2)C[C@H]1C(N)C(=O)O (some centres undefined) | < 4.00 | < 4.00 | –
7 | CCN(CC)C(=O)[C@@]1(c2ccccc2)C[C@H]1C(N)C#N (stereo in doubt; 2e) | 4.02 | < 4.00 | –
8 | CCN(CC)C(=O)[C@@]1(c2ccccc2)C[C@H]1C(N)C(N)=O (some centres undefined) | 4.57 | < 4.00 | –
